The numbers were not newly measured in patent US8187640B2, “Low viscosity liquid polymeric delivery system” (Dunn Research & Consulting, LLC, priority 2009, dated 2012), which cites them from elsewhere.

This data set has as its system Male Sprague Dawley rats. The conditions noted are these: given in an aqueous solution.

For buprenorphine HCL, the “Duration of efficacy in the rat tail flick test” value was “about 5 hours”.
